Experimental data from the supplement of paper PMC10307832.

How the values were obtained:
Experiment in all cases: relative viability (nuclei count vs DMSO), 5 days (fraction); higher = more cells survive
Decitabine + Foretinib = compound: Nc1ncn([C@H]2C[C@H](O)[C@@H](CO)O2)c(=O)n1 [Decitabine] + COc1cc2c(Oc3ccc(NC(=O)C4(C(=O)Nc5ccc(F)cc5)CC4)cc3F)ccnc2cc1OCCCN1CCOCC1 [Foretinib] (partner 0.25 µM)
Outline: (§1)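 One day after seeding in 1536-well plates, lung cancer cell lines were dosed by pin tool. Dosing was either single-drug or a fixed anchor-drug dose plus five library-drug doses (not always all listed) in √10 steps. After 5 days, nuclei were stained in one fix-and-stain step and counted on 4× images, and relative viability is the nuclei count of treated wells over that of vehicle wells, given as the median of duplicate plates.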

Decitabine + Palbociclib = compound: Nc1ncn([C@H]2C[C@H](O)[C@@H](CO)O2)c(=O)n1 [Decitabine] + CC(=O)c1c(C)c2cnc(Nc3ccc(N4CCNCC4)cn3)nc2n(C2CCCC2)c1=O [Palbociclib] (partner 0.5 µM)
Outline: as §1

Cediranib + AZD7762 = compound: COc1cc2c(Oc3ccc4[nH]c(C)cc4c3F)ncnc2cc1OCCCN1CCCC1 [Cediranib] + NC(=O)Nc1cc(-c2cccc(F)c2)sc1C(=O)N[C@H]1CCCNC1 [AZD7762] (partner 0.2 µM)
Outline: as §1

Cediranib + Luminespib = compound: COc1cc2c(Oc3ccc4[nH]c(C)cc4c3F)ncnc2cc1OCCCN1CCCC1 [Cediranib] + CCNC(=O)c1noc(-c2cc(C(C)C)c(O)cc2O)c1-c1ccc(CN2CCOCC2)cc1 [Luminespib] (partner 0.01 µM)
Outline: as §1

Cell Line | relative viability (Decitabine + Foretinib; first compound 0.04 µM) | relative viability (Decitabine + Foretinib; first compound 0.1265 µM) | relative viability (Decitabine + Foretinib; first compound 0.4 µM) | relative viability (Decitabine + Foretinib; first compound 1.265 µM) | relative viability (Decitabine + Foretinib; first compound 4 µM) | relative viability (Decitabine + Palbociclib; first compound 0.04 µM) | relative viability (Decitabine + Palbociclib; first compound 0.1265 µM) | relative viability (Decitabine + Palbociclib; first compound 0.4 µM) | relative viability (Decitabine + Palbociclib; first compound 1.265 µM) | relative viability (Decitabine + Palbociclib; first compound 4 µM) | relative viability (Cediranib + AZD7762; first compound 0.04 µM) | relative viability (Cediranib + AZD7762; first compound 0.1265 µM) | relative viability (Cediranib + AZD7762; first compound 0.4 µM) | relative viability (Cediranib + AZD7762; first compound 1.265 µM) | relative viability (Cediranib + AZD7762; first compound 4 µM) | relative viability (Cediranib + Luminespib; first compound 0.04 µM) | relative viability (Cediranib + Luminespib; first compound 0.1265 µM) | relative viability (Cediranib + Luminespib; first compound 0.4 µM) | relative viability (Cediranib + Luminespib; first compound 1.265 µM) | relative viability (Cediranib + Luminespib; first compound 4 µM)
LC-2-ad | 0.68 | 0.889 | 0.794 | 0.557 | 0.516 | 0.498 | 0.538 | 0.48 | 0.365 | 0.463 | 0.92 | 1.02 | 0.759 | 0.88 | 0.85 | 1.05 | 1.06 | 0.99 | 1.08 | 0.772
HARA | 0.641 | 0.558 | 0.387 | 0.215 | 0.165 | 0.238 | 0.244 | 0.253 | 0.223 | 0.207 | 0.35 | 0.279 | 0.234 | 0.267 | 0.251 | 0.822 | – | 0.528 | 0.775 | 1.09
NCI-H650 | 0.929 | 0.667 | 0.506 | 0.363 | 0.319 | 0.268 | 0.243 | 0.198 | 0.191 | 0.182 | 0.879 | 0.654 | 0.953 | 0.944 | 1.13 | 0.842 | 0.831 | 0.763 | 1.02 | 0.774
NCI-H1975 | 0.63 | 0.546 | 0.265 | 0.317 | 0.31 | 0.395 | 0.46 | 0.285 | 0.231 | 0.301 | 0.687 | 0.73 | 0.782 | 0.799 | 0.602 | 0.166 | 0.14 | 0.207 | 0.194 | 0.196
NCI-H2085 | 0.695 | 0.556 | 0.407 | 0.457 | 0.426 | 0.465 | 0.403 | 0.408 | 0.335 | 0.395 | 0.966 | 0.987 | 0.921 | 1.11 | 0.997 | 0.506 | 0.406 | 0.42 | 0.421 | 0.478
NCI-H3122 | 0.898 | 0.775 | 0.715 | 0.539 | 0.575 | 0.2 | 0.213 | 0.183 | 0.181 | 0.191 | 1.05 | – | 0.95 | 0.969 | 1.07 | 0.0861 | 0.09 | 0.0816 | 0.0839 | 0.12
NCI-H1651 | 0.685 | 0.942 | 0.783 | 0.647 | 0.526 | 0.522 | 0.508 | 0.515 | 0.389 | 0.403 | 0.437 | 0.527 | 0.471 | 0.314 | 0.524 | 0.763 | 0.751 | 0.786 | 0.861 | 0.892
NCI-H441 | 0.396 | 0.401 | 0.347 | 0.25 | 0.325 | 0.214 | 0.198 | 0.183 | 0.138 | 0.205 | 1.26 | 1.25 | 1.07 | 1.16 | 1.18 | 0.471 | – | 0.273 | 0.341 | 0.279
ABC-1 | 0.979 | 0.912 | 0.763 | 0.839 | 0.67 | – | 0.805 | 0.794 | 0.57 | 0.551 | 0.635 | 0.729 | 0.813 | 0.905 | 0.723 | 0.885 | 0.714 | – | 0.44 | 0.486
NCI-H2126 | 1.05 | 0.929 | 0.607 | 0.583 | 0.466 | 0.367 | 0.354 | 0.313 | 0.36 | 0.372 | 0.985 | 1.08 | 1.01 | 0.87 | 1.05 | 0.904 | 1.03 | 0.873 | 0.752 | 0.816
RERF-LC-KJ | 0.877 | 0.84 | 0.741 | 0.689 | 0.635 | 1.02 | 1.02 | 0.404 | 0.633 | 0.636 | 0.92 | 0.411 | 0.881 | 0.725 | 0.923 | 1.39 | 1.15 | 1.27 | 1.25 | 1.25
NCI-H1666 | 0.91 | 0.86 | 0.776 | 0.662 | 0.68 | 0.692 | 0.684 | 0.675 | 0.553 | 0.647 | 0.868 | 0.757 | 0.907 | 0.767 | 0.894 | 1.05 | 1.04 | 1.05 | 0.981 | 1.07
PC-14 | – | 0.744 | 0.411 | 0.313 | 0.282 | 0.435 | 0.36 | 0.264 | 0.112 | 0.098 | 0.247 | 0.377 | 0.355 | 0.262 | 0.344 | 0.137 | 0.16 | 0.154 | 0.108 | 0.119
NCI-H1915 | 0.534 | 0.396 | 0.326 | 0.314 | 0.326 | 0.328 | 0.209 | 0.22 | 0.194 | 0.192 | 0.657 | 0.8 | 0.715 | 0.709 | 0.719 | 0.972 | 0.759 | 0.787 | 0.813 | 0.875
NCI-H1944 | 0.766 | 0.752 | 0.567 | 0.444 | 0.396 | 0.331 | 0.32 | 0.313 | 0.294 | 0.281 | 0.487 | 0.586 | 0.481 | 0.408 | 0.582 | 0.767 | 0.796 | 0.741 | 0.72 | 0.963
PC-3 [JPC-3] | 0.833 | 0.71 | 0.588 | 0.54 | 0.472 | – | 0.572 | 0.496 | 0.493 | 0.511 | 0.758 | – | 0.769 | 0.749 | 0.783 | 0.649 | 0.654 | 0.665 | 0.735 | 0.449
LCLC-103H | 0.945 | 0.807 | 0.717 | 0.636 | 0.519 | 0.429 | 0.49 | 0.444 | 0.442 | 0.501 | 0.829 | 1.01 | 0.724 | 0.826 | 0.858 | 0.931 | 1.05 | 0.952 | 1 | 0.894
EKVX | 0.65 | 0.995 | 0.605 | 0.353 | 0.365 | 0.3 | 0.372 | 0.405 | 0.259 | 0.235 | 0.731 | 0.609 | 0.636 | – | 0.798 | 0.965 | 0.969 | 0.822 | 0.742 | 0.995
NCI-H460 | 0.948 | 0.816 | 0.619 | 0.43 | 0.193 | 0.174 | 0.289 | 0.185 | 0.0847 | 0.0625 | 0.727 | 0.679 | 0.584 | 0.574 | 0.616 | 0.0397 | 0.0286 | 0.0301 | 0.0321 | 0.0373
NCI-H2170 | 0.87 | 0.85 | 0.767 | 0.437 | 0.393 | 0.314 | 0.341 | 0.334 | 0.256 | 0.227 | 0.871 | – | 0.743 | 0.611 | 1.1 | 0.654 | 0.704 | 0.666 | 0.547 | 0.848
NCI-H727 | 0.669 | 0.675 | 0.651 | 0.775 | 0.483 | 0.641 | 0.608 | 0.653 | 0.617 | 0.6 | 0.601 | 0.379 | 0.636 | 0.626 | 0.538 | – | – | 0.511 | 0.463 | 0.395
NCI-H838 | 0.716 | 0.492 | 0.357 | 0.387 | 0.301 | 0.259 | 0.275 | 0.194 | 0.211 | 0.199 | 0.978 | 0.934 | 0.934 | 0.896 | 0.975 | 0.328 | 0.289 | 0.276 | 0.314 | 0.272
H3255 | – | 0.652 | 0.484 | 0.587 | 0.513 | 0.333 | 0.343 | 0.3 | 0.302 | 0.307 | 0.889 | 0.811 | 0.924 | 0.824 | 0.886 | 0.83 | – | 0.879 | 0.709 | 0.992
EPLC-272H | – | 0.611 | 0.0722 | 0.304 | 0.35 | 0.353 | 0.316 | – | 0.326 | 0.272 | 0.2 | – | 0.272 | 0.175 | 0.259 | 0.32 | – | 0.243 | – | 0.228
NCI-H647 | 0.966 | 0.919 | 0.509 | 0.35 | 0.234 | 0.269 | 0.489 | 0.236 | 0.123 | 0.117 | 0.498 | 0.462 | 0.389 | 0.404 | 0.475 | 0.13 | 0.308 | 0.174 | 0.157 | 0.212
LXF-289 | 0.713 | 0.541 | 0.399 | 0.289 | 0.269 | 0.539 | 0.418 | 0.346 | 0.27 | 0.238 | 1.12 | – | 1.02 | 0.971 | 1.11 | 0.719 | 0.52 | 0.587 | 0.7 | 0.55
NCI-H1755 | 0.889 | 0.886 | 0.804 | 0.565 | 0.447 | 0.461 | 0.495 | 0.424 | 0.431 | 0.407 | 0.423 | 0.617 | 0.375 | 0.43 | 0.425 | 0.556 | 0.419 | 0.403 | 0.232 | 0.467
